Two compounds from PubChem BioAssay AID743164 (Broad Institute, 2013) can be followed below.

For orientation: IC90 means the point of the concentration-response curve where the effect stands at 90%.

The nature of assay [1]: IC90 against starved M. tuberculosis, dose response, CFU by imaging, dry powder, 7108-04 (AID 743164). The settings on record: Mycobacterium tuberculosis, starved, CFU imaging.
Assay [2] relates to Mycobacterium tuberculosis, starved, CFU imaging. Described as above.

Calls of active or inactive are those of the source. The rule behind the calls is not given here.

For the compound `CCOC(=O)NC(=O)c1ccsc1NC(=O)c1nc2ccccc2s1`, the outcome in assay [1] was inactive.
Take `Cn1c(NC(=O)c2ccccc2)nc2ccccc21`: the IC90 in assay [2] was less than 8 µM.
